Experimental data reported in patent US6716819B2, “Use of xylitol to reduce ionic strength and activate endogenous antimicrobials for prevention and treatment of infections” (University of Iowa Research Foundation, priority 2000, dated 2004).

Legend:
CF epithelia = assay: ASL Cl- concentration and volume (isotope method); type: cell-based, human
Description: FIGS. 3(A-B). The effect of apical xylitol on non-CF and CF ASL Cl^− concentration and volume. Five μl of isosmotic xylitol or saline solution were applied to the apical surface. Twenty-four hours later, ASL Cl^− concentration (A) and volume (B) were determined. Asterisk indicates a difference between the saline and the xylitol solutions, p<0.05. N=15 to 18 from 3 CF and 3 non-CF specimens.
Airway epithelial cells were isolated from tracheal and bronchial tissue. […] All epithelia were evaluated with scanning electron microscopy for the development of a ciliated apical surface.
The ASL Cl^− concentration was measured as previously described (Zabner, J., J. J. Smith, P. H. Karp, J. H. Widdicombe, and M. J. Welsh. 1998. Loss of CFTR chloride channels alters salt absorption by cystic fibrosis airway epithelia in vitro. Mol. Cell. 2:397-403). […] The ratio of ^36Cl to ^3H2O was determined by liquid scintillation. […] From these measurements, it was determined the ^3H2O activity per μl of water and the cpm of ^36Cl per mole of Cl^− in the basolateral medium. ASL volume was calculated from the ASL ^3H2O collected divided by the ratio of ^3H2O activity per μl of basolateral medium. Chloride content was calculated from the ASL ^36Cl collected divided by the ratio of ^36Cl per mole of Cl^− in the basolateral medium ASL Cl^− concentration was calculated from the Cl^− content divided by the volume of ASL. […]

non-CF epithelia = type: in vitro ADME, human
Description: FIGS. 1(A-C). Permeability of xylitol added to the apical surface of non-CF epithelia. Xylitol (138 mM in 60 μl) was added to the apical surface of differentiated airway epithelia at time zero. Apical liquid was removed and volume determined at times indicated. Xylitol was measured by NMR. Data are mean±SEM; n=4. Some SEM bars are hidden by symbols.
Airway epithelial cells were isolated from tracheal and bronchial tissue. Cells were seeded onto collagen-coated, semi-permeable membranes (0.6 cm^2 Millicel-HA; Millipore, Bedford, Mass.) and grown at the air-liquid interface as previously described (Smith, J. J., S. M. Travis, E. P. Greenberg, and M. J. Welsh. 1996. Cystic fibrosis airway epithelia fail to kill bacteria because of abnormal airway surface fluid. Cell. 85:229-236; and erratum 287(222); Yamaya, M., W. E. Finbeiner, S. Y. Chun, and J. H. Widdicombe. 1992. Differentiated structure and function of cultures from human tracheal epithelium. Am. J. Physiol. 262:L713-L724; Zabner, J., B. G. Zeiher, E. Friedman, and M. J. Welsh. 1996. […] All epithelia were evaluated with scanning electron microscopy for the development of a ciliated apical surface.
Proton nuclear magnetic resonance spectroscopy was used to measure the xylitol concentration in the fluid on the apical surface. […] Concentrations were then determined by comparing the measured peak integral to a standard curve for xylitol. […]

## OC[C@@H](O)[C@H](O)[C@@H](O)CO [xylitol]
CF epithelia; 24 hours after 5 μl apical
  estimated ASL volume: increased
CF epithelia; 24 hours after 5 μl isosmotic xylitol solution apical
  ASL Cl- concentration: fell to values observed in non-CF epithelia
non-CF epithelia
  xylitol permeability: not high
non-CF epithelia; human, 138 mM
  time after which approximately half the applied xylitol would diffuse to the basolateral surface: ~11 h
